According to paper PMC6706930, “A novel oral micellar fenretinide formulation with enhanced bioavailability and antitumour activity against multiple tumours from cancer stem cells” (Journal of Experimental & Clinical Cancer Research : CR, 2019):
“And” between values parts separate entries of the source, which are not always exact repeats. Equal values may be shown once. Read-outs that look alike come from different tables or passages of the source. Each block holds one compound with its values, some of them ahead of it.

Assay: Tumour pharmacokinetics: fenretinide and metabolite levels in plasma and tumours of xenografted mice
Type: in vivo
Settings: for concentration at 3 h: female, mouse, oral
Protocol: The determination of fenretinide in plasma of mice and the others biological samples was determined according to a method specifically developed and validated for the quantification of fenretinide (4-HPR) based on liquid chromatography-tandem mass spectrometry (LC–MS/MS) (manuscript in preparation). The procedure of sample preparation and quantification can be summarized as follows. 30 μL aliquot of plasma was added with 3 ng of deuterated internal standard (^2H4 4-HPR), deproteinized by mean of 90 μL of acetonitrile and centrifuged 5 min at 13200 rpm at room temperature. The supernatant was recovered and 5 μL injected into a HPLC system (Series 200, Perkin Elmer, MA, USA). Chromatographic separation was achieved on a Gemini-C18 column (50 mm × 2.0 mm, 5 μm particle size; Phenomenex Inc., Torrance, CA, USA) at 32 °C protected with a Security Guard™ ULTRA cartridges C18. The detection obtained by Mass spectrometric detection was carried out on a triple quadrupole API 4000 mass spectrometer (Sciex, MA, USA) equipped with atmospheric pressure chemical ionization source (APCI) operating in positive ion mode monitoring the transitions 392.3 > 283.2 m/z for 4-HPR and 396.3 > 283.2 m/z for the deuterated internal standard. To assay study samples, a calibration curve of six points (range: 1.0–500.00 ng/mL) was prepared in control mouse plasma assessing the precision and the accuracy of the run analyzing at the same time a set of freshly prepared quality controls samples. The Limit Of Quantification of the method was 1 ng/mL in plasma and urine and 50 ng/g in faeces.
Cell suspensions of lung and colon cancer and melanoma CSC lines were mixed 1:1 with Growth Factor-Reduced Matrigel (Beckton Dickinsons) and injected subcutaneously in both flanks of 5-week-old female NOD-SCID (non-obese diabetic/severe combined immunodeficiency) mice in the case of colon and melanoma or NSG (non-obese diabetic/severe combined immunodeficiency gamma chain deficient) mice in the case of lung (Charles River, Wilmington, MA, USA). For drug treatment, when tumours reached a mean diameter of 0.5 cm, groups of 6 mice were randomized into 3 groups and treated with vehicle, with Bio-nFeR (50,100 or 150 mg/kg as described) freshly dissolved in sterile water or with the standard formulation NCI-FeR that reproduce NCI capsule (50 or 100 mg/Kg). Treatments were administered by oral gavage 5 days on and 2 days off for 3 weeks. Tumours were measured twice a week using a caliper, and mice were monitored for signs of drug-induced toxicity and weighed regularly. At the end of treatments, in a study paralleling the assessment of antitumour activity, tumours and blood samples were collected for pharmacokinetic and molecular studies 3 hours after the last drug administration. Collection of blood, plasma separation and storing were as previously described. Immediately after blood collection mice were sacrificed by cervical dislocation, tumours removed rapidly frozen in liquid nitrogen and stored in small pieces at − 80 °C for subsequent fenretinide determination, protein and lipid analyses. All procedures were performed with the approval of the Ethics Committee for Animal Experimentation.

[1] = colon cancer xenograft mice, Bio-nFeR 150 mg/kg, Suppl. Table 5
[2] = colon cancer xenograft, Bio-nFeR 150 mg/kg, Suppl. Table 5
[3] = lung cancer xenograft mice, Bio-nFeR 100 mg/kg, Suppl. Table 5
[4] = lung cancer xenograft, Bio-nFeR 100 mg/kg, Suppl. Table 5
[5] = melanoma xenograft mice, Bio-nFeR 100 mg/kg, Suppl. Table 5
[6] = melanoma xenograft, Bio-nFeR 100 mg/kg, Suppl. Table 5

Mean concentration (±sd), Plasma [1]: 3519 (1319) ng/ml
Mean concentration (±sd), Tumor [2]: 2514 (189) ng/ml
Mean concentration (±sd), Plasma [3]: 2142 (374) ng/ml
Mean concentration (±sd), Tumor [4]: 2028 (150) ng/ml
Mean concentration (±sd), Plasma [5]: 1226 (220) ng/ml
Mean concentration (±sd), Tumor [6]: 2323(134) ng/ml
SMILES: CC1=C(/C=C/C(C)=C/C=C/C(C)=C/C(=O)Nc2ccc(O)cc2)C(C)(C)CCC1=O [4-oxo-4-HPR]

concentration at 3 h (NOD-SCID, colon cancer xenograft, Bio-nFeR 150 mg/kg, tumour density assumed =1, read-out: Mean 4-HPR concentration: Tumor): 4.8 µM
concentration at 3 h (NOD-SCID, melanoma xenograft, Bio-nFeR 100 mg/kg, tumour density assumed =1, read-out: Mean 4-HPR concentration: Tumor): 5.4 µM
concentration at 3 h (NOD-SCID, plasma, colon cancer xenograft mice, Bio-nFeR 150 mg/kg, Suppl. Table 5, read-out: Mean concentration (±sd), Plasma): 4990 ng/mL
concentration at 3 h (NOD-SCID, plasma, colon cancer xenograft mice, Bio-nFeR 150 mg/kg, read-out: Mean 4-HPR concentration: Plasma): 12.1 µM
concentration at 3 h (NOD-SCID, plasma, melanoma xenograft mice, Bio-nFeR 100 mg/kg, Suppl. Table 5, read-out: Mean concentration (±sd), Plasma): 1710 ng/mL
concentration at 3 h (NOD-SCID, plasma, melanoma xenograft mice, Bio-nFeR 100 mg/kg, read-out: Mean 4-HPR concentration: Plasma): 4.7 µM
concentration at 3 h (NOD-SCID, tumour, colon cancer xenograft, Bio-nFeR 150 mg/kg, Suppl. Table 5, read-out: Mean concentration (±sd), Tumor): 1880 ng/mL
concentration at 3 h (NOD-SCID, tumour, colon cancer xenograft, Bio-nFeR 150 mg/kg, read-out: Mean 4-HPR concentration ± (sd): Tumor): 1880 ng/g
concentration at 3 h (NOD-SCID, tumour, melanoma xenograft, Bio-nFeR 100 mg/kg, Suppl. Table 5, read-out: Mean concentration (±sd), Tumor): 2130 ng/mL
concentration at 3 h (NOD-SCID, tumour, melanoma xenograft, Bio-nFeR 100 mg/kg, read-out: Mean 4-HPR concentration ± (sd): Tumor): 2130 ng/g
concentration at 3 h (NSG, lung cancer xenograft, Bio-nFeR 100 mg/kg, tumour density assumed =1, read-out: Mean 4-HPR concentration: Tumor): 5.7 µM
concentration at 3 h (NSG, plasma, lung cancer xenograft mice, Bio-nFeR 100 mg/kg, Suppl. Table 5, read-out: Mean concentration (±sd), Plasma): 3450 ng/mL
concentration at 3 h (NSG, plasma, lung cancer xenograft mice, Bio-nFeR 100 mg/kg, read-out: Mean 4-HPR concentration: Plasma): 8.8 µM
concentration at 3 h (NSG, tumour, lung cancer xenograft, Bio-nFeR 100 mg/kg, Suppl. Table 5, read-out: Mean concentration (±sd), Tumor): 2230 ng/mL
concentration at 3 h (NSG, tumour, lung cancer xenograft, Bio-nFeR 100 mg/kg, read-out: Mean 4-HPR concentration ± (sd): Tumor): 2230 ng/g
SMILES: CC1=C(/C=C/C(C)=C/C=C/C(C)=C/C(=O)Nc2ccc(O)cc2)C(C)(C)CCC1 [4-HPR, 4-hydroxy (phenyl)retinamide, reference compound]
concentration at 3 h (NOD-SCID (colon, melanoma), NSG (lung), tumour, both drug doses analyzed (Bio-nFeR 100 and 150 mg/kg), three xenograft models, read-out: intra-tumour concentration): 1880 ng/g to 2230 ng/g and 4.8 µM to 5.7 µM

Mean concentration (±sd), Plasma [1]: 790 (261) ng/ml
Mean concentration (±sd), Tumor [2]: 1090 (503) ng/ml
Mean concentration (±sd), Plasma [3]: 394 (68) ng/ml
Mean concentration (±sd), Tumor [4]: 2282 (598) ng/ml
Mean concentration (±sd), Plasma [5]: 190 (32) ng/ml
Mean concentration (±sd), Tumor [6]: 707 (476) ng/ml
SMILES: COc1ccc(NC(=O)\C=C(C)/C=C/C=C(C)\C=C\C2=C(C)CCCC2(C)C)cc1 [MPR]
